Measurements taken from ChEMBL document CHEMBL1828522, “Synthesis and preliminary evaluation of a modified estradiol-core bearing a fused γ-lactone as non-estrogenic inhibitor of 17β-hydroxysteroid dehydrogenase type 1” (Bioorg Med Chem Lett, 2011).
The source made the active and inactive calls. The calls are words filed in the database; no cut-off is given here.

Tests used:
[1] = biological target: T1, 17-beta-hydroxysteroid dehydrogenase type 1 (Homo sapiens) (UniProt P14061); test: Inhibition of 17beta-HSD1 in human T47D cells expressing estrogen receptor assessed as conversion of [14C]-E1 to [14C]-E2 at 5 uM after 24 hrs; type: cell-based
T1 sequence (whole entry): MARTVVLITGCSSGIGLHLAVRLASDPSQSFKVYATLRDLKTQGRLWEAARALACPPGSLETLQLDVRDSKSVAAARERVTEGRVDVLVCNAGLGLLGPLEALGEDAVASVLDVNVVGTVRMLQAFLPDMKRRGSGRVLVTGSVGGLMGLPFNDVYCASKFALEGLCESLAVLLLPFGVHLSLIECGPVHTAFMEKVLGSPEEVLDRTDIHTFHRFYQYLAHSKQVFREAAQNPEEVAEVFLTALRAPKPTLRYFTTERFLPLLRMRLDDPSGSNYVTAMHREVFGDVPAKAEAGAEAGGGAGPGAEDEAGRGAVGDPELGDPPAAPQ

[2] = biological target: T1, 17-beta-hydroxysteroid dehydrogenase type 1 (Homo sapiens); test: Inhibition of 17beta-HSD1 in human T47D cells expressing estrogen receptor assessed as conversion of [14C]-E1 to [14C]-E2 at 0.3 uM after 24 hrs; type: cell-based
[3] = biological target: T2, 17-beta-hydroxysteroid dehydrogenase type 1 (Homo sapiens, UniProt P14061); test: Inhibition of 17beta-HSD1 in human T47D cells expressing estrogen receptor assessed as conversion of [14C]-E1 to [14C]-E2 after 24 hrs; type: cell-based
T2 sequence (P14061 whole entry): T1 sequence (whole entry)

[4] = system: T47D; test: Estrogenic activity in human T47D cells expressing estrogen receptor assessed as stimulation cell growth at 1 uM after 7 days relative to control
[5] = system: T47D; test: Estrogenic activity in human T47D cells expressing estrogen receptor assessed as stimulation cell growth at 0.1 uM after 7 days relative to control

`C[C@]12CC[C@@H]3c4ccc(O)cc4CC[C@H]3[C@@H]1C[C@@H]1[C@@H](Cc3cccc(C(N)=O)c3)C(=O)O[C@@H]12` gave an inhibition [1] of 75%, an inhibition [2] of 20% and an IC50 [3] of 1000 nM. The Activity [4] was “inactive” and the Activity [5] was “inactive”.
`C[C@]12CC[C@@H]3c4ccc(O)cc4CC[C@H]3[C@@H]1C[C@H](Cc1cccc(C(N)=O)c1)[C@@H]2O` was tested, and the inhibition [1] was 90%, the inhibition [2] was 85% and the Activity [4] was 83%. It also gave an Activity [5] of 48%.
